Test results from PMC2631241 (Journal of combinatorial chemistry, 2008).

Biological target: human serum albumin (HSA) (Homo sapiens, UniProt P02768)
Test: 1D 1H NMR line-broadening titration of ligand with HSA

human serum albumin (HSA), sequence (P02768 25-609): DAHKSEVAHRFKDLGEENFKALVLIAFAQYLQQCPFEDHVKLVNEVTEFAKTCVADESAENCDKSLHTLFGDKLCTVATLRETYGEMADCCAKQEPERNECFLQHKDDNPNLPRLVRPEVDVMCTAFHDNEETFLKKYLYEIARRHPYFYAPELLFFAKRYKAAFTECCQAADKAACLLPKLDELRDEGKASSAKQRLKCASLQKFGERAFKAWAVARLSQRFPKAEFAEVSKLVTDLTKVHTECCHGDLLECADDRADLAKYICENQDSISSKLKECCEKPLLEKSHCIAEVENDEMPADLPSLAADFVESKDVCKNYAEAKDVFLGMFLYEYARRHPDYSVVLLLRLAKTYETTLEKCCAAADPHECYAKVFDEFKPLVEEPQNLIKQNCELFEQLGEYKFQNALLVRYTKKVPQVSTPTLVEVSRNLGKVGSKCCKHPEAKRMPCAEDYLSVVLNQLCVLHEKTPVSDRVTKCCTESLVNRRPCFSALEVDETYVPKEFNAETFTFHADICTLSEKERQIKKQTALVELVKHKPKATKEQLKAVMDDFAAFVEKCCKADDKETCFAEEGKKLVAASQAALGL

SMILES	Kd [µM]
O=S1(=O)OC(c2ccc(O)cc2)(c2ccc(O)cc2)c2ccccc21 [Phenol Red, phenol red]	36.8 ± 6.5
CCOC(=O)C(C)(C)Oc1ccc(Cl)cc1 [Clofibrate, clofibrate]	1.7 ± 3.4
O=C1NC(=O)C(c2ccccc2)(c2ccccc2)N1 [Phenytoin, phenytoin]	132 ± 12.5
